Measured values taken from US8829007B2 (priority 2009, dated 2014).
Structures can show the parent of a compound that is named as a salt. Where two headings read alike, the source gives them in different places.

Key:
[1] = tested on: influenza A virus (A/PR/8/34); assay: microbe, parasite or virus in culture; format: cell-based
[2] = tested on: A/PR/8/34 influenza virus; assay: microbe, parasite or virus in culture; format: cell-based
[3] = Influenza A virus, PR/8, MDCK, MDCK cells infected with A/PR/8/34, cell protection (CPE), read-out: IC50 (mean all)
[4] = Influenza A virus, PR/8, MDCK, MDCK cells infected with A/PR/8/34, bDNA viral RNA, read-out: EC50 (mean all)
[5] = CPE assay, A/PR/8/34 infected MDCK cells, class symbols, read-out: IC50 (mean all)
[6] = bDNA assay, A/PR/8/34 influenza virus replication in MDCK cells, class symbols, read-out: EC50 (mean all)
[7] = mean all, MDCK cells infected with A/PR/8/34, cell protection (CPE), read-out: IC50
[8] = mean all, bDNA viral RNA in MDCK cells infected with A/PR/8/34, read-out: EC50
[9] = Influenza A virus, PR/8, MDCK, CPE assay, A/PR/8/34 infected MDCK cells, class symbols, read-out: IC50 (mean all)
[10] = Influenza A virus, PR/8, MDCK, bDNA assay, A/PR/8/34 influenza virus replication in MDCK cells, class symbols, read-out: EC50 (mean all)
[11] = Influenza A virus, PR/8, MDCK, mean all, A/PR/8/34 infected MDCK cells, CPE assay, read-out: IC50
[12] = Influenza A virus, PR/8, MDCK, mean all, A/PR/8/34 influenza virus in MDCK cells, bDNA assay, read-out: EC50
[13] = Influenza A virus, PR/8, MDCK, MDCK cells infected with A/PR/8/34, survival of infected cells, class symbols, read-out: IC50 (mean all)
[14] = Influenza A virus, PR/8, MDCK, MDCK cells infected with A/PR/8/34, replication of influenza virus (viral RNA, bDNA), class symbols, read-out: EC50 (mean all)

`CCOC(=O)N1CCC[C@@H](CNc2nc(-c3c[nH]c4ncc(Cl)cc34)ncc2F)C1` [Compound 33, (S)-ethyl 3-((2-(5-chloro-1H-pyrrolo[2,3-b]pyridin-3-yl)-5-fluoropyrimidin-4-ylamino)methyl)piperidine-1-carboxylate] was tested, and the IC50 [1, 3] was less than 5 µM and the EC50 [2, 4] was less than 5 µM.

`C#CC1(O)CCCC(Nc2nc(-c3c[nH]c4ncc(Cl)cc34)ncc2F)C1` (stereo not drawn) [Compound 618] showed an IC50 [1, 5] of less than 5 µM and an EC50 [2, 6] of less than 5 µM.

With `CCNC(=O)OC1(C)CCCC(Nc2nc(-c3c[nH]c4ncc(Cl)cc34)ncc2F)C1` (single isomer, unassigned) [Compound 722] the IC50 [1, 7] was less than 5 µM and the EC50 [2, 8] was less than 5 µM.

In the case of `O=S(=O)(c1ccc(F)cc1)N1CCC[C@H](CNc2nc(-c3c[nH]c4ncc(Cl)cc34)ncc2F)C1` [Compound 64, (R)-2-(5-chloro-1H-pyrrolo[2,3-b]pyridin-3-yl)-5-fluoro-N-((1-(4-fluorophenylsulfonyl)piperidin-3-yl)methyl)pyrimidin-4-amine], the IC50 [1, 3] is reported as 5 to 20 µM and the EC50 [2, 4] is reported as less than 5 µM.

For `NC(=O)C(O)CN1CCCC(Nc2nc(-c3c[nH]c4ncc(Cl)cc34)ncc2F)C1` [Compound 603, 3-((S)-3-((2-(5-chloro-1H-pyrrolo[2,3-b]pyridin-3-yl)-5-fluoropyrimidin-4-ylamino)piperidin-1-yl)-2-hydroxypropanamide], the IC50 [1, 9] was less than 5 µM and the EC50 [2, 10] was less than 5 µM.

In the case of `C#CCCCC(=O)N1CCCC[C@@H]1CNc1nc(-c2c[nH]c3ncc(Cl)cc23)ncc1F` [Compound 281, (R)-1-(2-((2-(5-chloro-1H-pyrrolo[2,3-b]pyridin-3-yl)-5-fluoropyrimidin-4-ylamino)methyl)piperidin-1-yl)hex-5-yn-1-one], the IC50 [1, 3] is reported as less than 5 µM and the EC50 [2, 4] is reported as less than 5 µM.

In the case of `COCCC(=O)N1CCC[C@H](CNc2nc(-c3c[nH]c4ncc(Cl)cc34)ncc2F)C1` [Compound 327, (R)-1-(3-((2-(5-chloro-1H-pyrrolo[2,3-b]pyridin-3-yl)-5-fluoropyrimidin-4-ylamino)methyl)piperidin-1-yl)-3-methoxypropan-1-one], the IC50 [1, 11] is reported as less than 5 µM and the EC50 [2, 12] is reported as less than 5 µM.

For `O=C(Cc1ccccc1)N1CCC[C@H](CNc2nc(-c3c[nH]c4ncc(Cl)cc34)ncc2F)C1` [Compound 56, (R)-1-(3-((2-(5-chloro-1H-pyrrolo[2,3-b]pyridin-3-yl)-5-fluoropyrimidin-4-ylamino)methyl)piperidin-1-yl)-2-phenylethanone], the IC50 [1, 3] was less than 5 µM and the EC50 [2, 4] was less than 5 µM.

Work on `CCOC(=O)C(=O)N(C(=O)OC(C)(C)C)C1CC2CC(C(=O)OC)C1C2` (stereo not drawn) [Compound 721] yielded an IC50 [1, 7] of less than 5 µM and an EC50 [2, 8] of less than 5 µM.

Compound `CC(C)(O)C(=O)NC1CCCC(Nc2nc(-c3c[nH]c4ncc(Cl)cc34)ncc2F)C1` (stereo not drawn) [Compound 681] has an IC50 [1, 7] of less than 5 µM and an EC50 [2, 8] of less than 5 µM.

`CC(Cl)C(=O)N1CCC[C@H](CNc2nc(-c3c[nH]c4ncc(Cl)cc34)ncc2F)C1` (stereo partly drawn) [Compound 93, 2-chloro-1-((R)-3-((2-(5-chloro-1H-pyrrolo[2,3-b]pyridin-3-yl)-5-fluoropyrimidin-4-ylamino)methyl)piperidin-1-yl)propan-1-one] gave an IC50 [1, 3] of less than 5 µM and an EC50 [2, 4] of less than 5 µM.

`NC(=O)N1CCC[C@H](Nc2nc(-c3c[nH]c4ncc(Cl)cc34)ncc2F)C1` [Compound 507] was tested, and the IC50 [1, 13] was less than 5 µM and the EC50 [2, 14] was less than 5 µM.

With `CC(C)CC(=O)N1CCC[C@H](Nc2nc(-c3c[nH]c4ncc(Cl)cc34)ncc2F)C1` [Compound 332] the IC50 [1, 11] was less than 5 µM and the EC50 [2, 12] was less than 5 µM.

Compound `CS(=O)(=O)C[C@@]1(O)CCC[C@H](Nc2nc(-c3c[nH]c4ncc(Cl)cc34)ncc2F)C1` [Compound 886] has an IC50 ([1]; read-out: IC50) of less than 5 µM and an EC50 ([2]; mean all, replication of A/PR/8/34 influenza virus (bDNA assay), read-out: EC50) of less than 5 µM.

For `COC(=O)N1CCC[C@@H](CNc2nc(-c3c[nH]c4ncc(Cl)cc34)ncc2F)C1` [Compound 23, (S)-methyl 3-((2-(5-chloro-1H-pyrrolo[2,3-b]pyridin-3-yl)-5-fluoropyrimidin-4-ylamino)methyl)piperidine-1-carboxylate], the IC50 [1, 3] was less than 5 µM and the EC50 [2, 4] was less than 5 µM.

`COc1c(C)cccc1C(=O)N1CCC[C@H](CNc2nc(-c3c[nH]c4ncc(Cl)cc34)ncc2F)C1` [Compound 148, (R)-(3-((2-(5-chloro-1H-pyrrolo[2,3-b]pyridin-3-yl)-5-fluoropyrimidin-4-ylamino)methyl)piperidin-1-yl)(2-methoxy-3-methylphenyl)methanone] showed an IC50 [1, 3] of less than 5 µM and an EC50 [2, 4] of less than 5 µM.

With `O=S(=O)(c1cccc(Br)c1)N1CCC[C@H](CNc2nc(-c3c[nH]c4ncc(Cl)cc34)ncc2F)C1` [Compound 67, (R)—N-((1-(3-bromophenylsulfonyl)piperidin-3-yl)methyl)-2-(5-chloro-1H-pyrrolo[2,3-b]pyridin-3-yl)-5-fluoropyrimidin-4-amine] the IC50 [1, 3] was less than 5 µM and the EC50 [2, 4] was less than 5 µM.

`CCN1CCCC[C@H](Nc2nc(-c3c[nH]c4ncc(Cl)cc34)ncc2F)C1=O` [Compound 462] was tested, and the IC50 [1, 11] was 5 to 20 µM and the EC50 [2, 12] was less than 5 µM.

With `O=S(=O)(C1CC1)N1CCC[C@H](CNc2nc(-c3c[nH]c4ncc(Cl)cc34)ncc2F)C1` [Compound 61, (R)-2-(5-chloro-1H-pyrrolo[2,3-b]pyridin-3-yl)-N-((1-(cyclopropylsulfonyl)piperidin-3-yl)methyl)-5-fluoropyrimidin-4-amine] the IC50 [1, 3] was less than 5 µM and the EC50 [2, 4] was less than 5 µM.

Work on `CC(C)COC(=O)NC1CCCC(Nc2nc(-c3c[nH]c4ncc(Cl)cc34)ncc2F)C1` (stereo not drawn) [Compound 699] yielded an IC50 [1, 7] of less than 5 µM and an EC50 [2, 8] of less than 5 µM.

`O=C(c1ccccc1C(F)(F)F)N1CCC[C@H](CNc2nc(-c3c[nH]c4ncc(Cl)cc34)ncc2F)C1` [Compound 146, (R)-(3-((2-(5-chloro-1H-pyrrolo[2,3-b]pyridin-3-yl)-5-fluoropyrimidin-4-ylamino)methyl)piperidin-1-yl)(2-(trifluoromethyl)phenyl)methanone] was tested, and the IC50 [1, 3] was less than 5 µM and the EC50 [2, 4] was less than 5 µM.

Work on `O=C(C1CCCCO1)N1CCCC(Nc2nc(-c3c[nH]c4ncc(Cl)cc34)ncc2F)C1` (stereo not drawn) [Compound 658] yielded an IC50 [1, 5] of less than 5 µM and an EC50 [2, 6] of less than 5 µM.

`O=C(C1CC1)N1CCC[C@H](CNc2nc(-c3c[nH]c4ncc(Cl)cc34)ncc2F)C1` [Compound 325, (R)-(3-((2-(5-chloro-1H-pyrrolo[2,3-b]pyridin-3-yl)-5-fluoropyrimidin-4-ylamino)methyl)piperidin-1-yl)(cyclopropyl)methanone] showed an IC50 [1, 11] of 5 to 20 µM and an EC50 [2, 12] of less than 5 µM.

Compound `CCC(CC)O[C@@H]1CC(C(=O)O)=CC(Nc2nc(-c3c[nH]c4ncc(Cl)cc34)ncc2F)[C@H]1NC(C)=O` (stereo partly drawn) [Compound 671] has an IC50 [1, 9] greater than 10 µM and an EC50 [2, 10] greater than 3.3 µM.

Compound `CC(=O)N1CCCC(Nc2nc(-c3c[nH]c4ncc(Cl)cc34)ncc2F)CC1` (stereo not drawn) [Compound 497, 1-(4-(2-(5-chloro-1H-pyrrolo[2,3-b]pyridin-3-yl)-5-fluoropyrimidin-4-ylamino)azepan-1-yl)ethanone] has an IC50 [1, 13] of less than 5 µM and an EC50 [2, 14] of less than 5 µM.

`O=C(N[C@@H]1CCC[C@H](Nc2nc(-c3c[nH]c4ncc(Cl)cc34)ncc2F)C1)N1CCOCC1` [Compound 647] was tested, and the IC50 [1, 9] was less than 5 µM and the EC50 [2, 10] was less than 5 µM.

With `O=C(Cc1ccc(F)cc1)N1CCC[C@H](CNc2nc(-c3c[nH]c4ncc(Cl)cc34)ncc2F)C1` [Compound 98, (R)-1-(3-((2-(5-chloro-1H-pyrrolo[2,3-b]pyridin-3-yl)-5-fluoropyrimidin-4-ylamino)methyl)piperidin-1-yl)-2-(4-fluorophenyl)ethanone] the IC50 [1, 3] was less than 5 µM and the EC50 [2, 4] was less than 5 µM.

Compound `CC(C)NC(=O)N1CCOCC1CNc1nc(-c2c[nH]c3ncc(Cl)cc23)ncc1F` (stereo not drawn) [Compound 536, 3-((2-(5-chloro-1H-pyrrolo[2,3-b]pyridin-3-yl)-5-fluoropyrimidin-4-ylamino)methyl)-N-isopropylmorpholine-4-carboxamide] has an IC50 [1, 13] of 5 to 20 µM and an EC50 [2, 14] greater than 10 µM.

For `CCOC(=O)[C@@H]1CCCC[C@H]1Nc1nc(-c2c[nH]c3ncc(Cl)cc23)ncc1F` [Compound 560, (1R,2R)-ethyl 2-(2-(5-chloro-1H-pyrrolo[2,3-b]pyridin-3-yl)-5-fluoropyrimidin-4-ylamino)cyclohexanecarboxylate], the IC50 [1, 13] was greater than 10 µM and the EC50 [2, 14] was greater than 10 µM.

With `C=CC1(O)CCCC(Nc2nc(-c3c[nH]c4ncc(Cl)cc34)ncc2F)C1` (stereo not drawn) [Compound 628] the IC50 [1, 5] was less than 5 µM and the EC50 [2, 6] was less than 5 µM.

`OCC1(O)CCCC(Nc2nc(-c3c[nH]c4ncc(Cl)cc34)ncc2F)C1` (stereo not drawn) [Compound 646] gave an IC50 [1, 9] of less than 5 µM and an EC50 [2, 10] of less than 5 µM.

`O=C(N[C@@H]1CCC[C@H](Nc2nc(-c3c[nH]c4ncc(Cl)cc34)ncc2F)C1)C1CCCCO1` (stereo partly drawn) [Compound 651, N-[(1R,3S)-3-[[2-(5-chloro-1H-pyrrolo[2,3-b]pyridin-3-yl)-5-fluoro-pyrimidin-4-yl]amino]cyclohexyl]tetrahydropyran-2-carboxamide hydrochloride] showed an IC50 [1, 9] of less than 5 µM and an EC50 [2, 10] of less than 5 µM.

`O[C@H]1[C@H](O)CCCC[C@@H]1Nc1nc(-c2c[nH]c3ncc(F)cc23)ncc1F` [Compound 984] gave an IC50 ([1]; Influenza A virus, PR/8, MDCK, MDCK cells, A/PR/8/34, ATP readout, mean all, read-out: Cell Flu, MDCK protection, ATP (All: IC50: uM)(Mean (All))) of less than 5 µM and an EC50 ([2]; Influenza A virus, PR/8, 30 h, HA(−) 30 hr, A/PR/8, bDNA, mean all, read-out: Cell Influenza HA(−) 30 hr A/PR/8 bDNA:bDNA EC50 uM(Mean (All))) of less than 5 µM.
